Experimental data from patent US20250129078A1, “ERBB2 INHIBITORS” (Cogent Biosciences, Inc., priority 2023, published 2025).

Target: EGFR WT (Homo sapiens (Human), UniProt P00533)
Assay: ErbB enzyme assay (CisBio HTRF-KinEASE-TK), EGFR WT
Assay type: biochemical
Conditions: ATP at Km (25 μM), 1 h incubation
In short: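 IC50 comes from a 4-parameter fit where the curve crosses 50 percent of control, using the 655/620 nm time-resolved fluorescence ratio with DMSO-only and pre-quenched references. Kinase reactions ran 1 h at ambient temperature before Sa-XL665/cryptate-antibody detection (1 h).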

EGFR WT, sequence (P00533 25-1210): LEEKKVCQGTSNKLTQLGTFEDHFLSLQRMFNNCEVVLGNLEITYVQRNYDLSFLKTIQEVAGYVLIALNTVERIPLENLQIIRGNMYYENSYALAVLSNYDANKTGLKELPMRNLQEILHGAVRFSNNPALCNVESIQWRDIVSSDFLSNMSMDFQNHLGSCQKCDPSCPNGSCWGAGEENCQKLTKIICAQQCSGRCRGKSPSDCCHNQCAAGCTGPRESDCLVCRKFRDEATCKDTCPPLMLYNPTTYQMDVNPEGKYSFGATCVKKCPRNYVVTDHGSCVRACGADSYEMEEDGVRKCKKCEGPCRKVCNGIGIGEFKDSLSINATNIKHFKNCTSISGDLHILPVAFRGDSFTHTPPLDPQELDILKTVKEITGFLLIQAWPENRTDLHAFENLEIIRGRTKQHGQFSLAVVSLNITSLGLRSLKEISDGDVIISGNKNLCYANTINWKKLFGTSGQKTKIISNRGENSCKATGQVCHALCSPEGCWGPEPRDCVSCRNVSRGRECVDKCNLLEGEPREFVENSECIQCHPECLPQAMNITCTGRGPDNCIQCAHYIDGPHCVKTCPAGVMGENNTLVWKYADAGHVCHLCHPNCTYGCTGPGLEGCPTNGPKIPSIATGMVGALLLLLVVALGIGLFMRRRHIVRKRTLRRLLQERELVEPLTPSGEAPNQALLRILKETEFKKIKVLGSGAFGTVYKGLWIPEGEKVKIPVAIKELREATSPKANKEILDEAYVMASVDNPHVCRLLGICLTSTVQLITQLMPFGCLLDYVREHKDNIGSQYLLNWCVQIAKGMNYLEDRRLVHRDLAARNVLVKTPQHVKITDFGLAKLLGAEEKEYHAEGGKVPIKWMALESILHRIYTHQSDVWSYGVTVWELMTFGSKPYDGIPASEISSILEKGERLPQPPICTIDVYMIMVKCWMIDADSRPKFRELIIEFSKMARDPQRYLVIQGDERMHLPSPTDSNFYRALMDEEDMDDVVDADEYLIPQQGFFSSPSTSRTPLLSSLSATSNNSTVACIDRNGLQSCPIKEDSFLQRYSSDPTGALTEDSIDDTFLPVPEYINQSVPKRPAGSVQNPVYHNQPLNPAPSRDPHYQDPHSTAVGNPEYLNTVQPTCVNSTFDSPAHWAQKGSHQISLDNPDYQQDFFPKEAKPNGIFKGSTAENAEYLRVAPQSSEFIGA

Row | Structure (SMILES) | IC50
1 | C=CC(=O)N1CCN(c2ccc3ncnc(Nc4cc(C)c(Oc5cc(F)c6c(c5)ncn6C)cc4OC)c3n2)C[C@H]1C [Compound 310, (R)-1-(4-(4-((4-((7-fluoro-1-methyl-1H-benzo[d]imidazol-5-yl)oxy)-2-methoxy-5-methylphenyl)amino)pyrido[3,2-d]pyrimidin-6-yl)-2-methylpiperazin-1-yl)prop-2-en-1-one] | 100 to 500 nM
2 | C=CC(=O)N1CCN(c2ccc3ncnc(Nc4cc(C)c(Oc5ccn6ncnc6c5)cc4OC)c3n2)C[C@H]1C [Compound 318, (R)-1-(4-(4-((4-([1,2,4]triazolo[1,5-a]pyridin-7-yloxy)-2-methoxy-5-methylphenyl)amino)pyrido[3,2-d]pyrimidin-6-yl)-2-methylpiperazin-1-yl)prop-2-en-1-one] | < 50 nM
3 | C=CC(=O)N1CCN(c2ccc3ncnc(Nc4ccc(Oc5cnc6ccnn6c5)c(C)c4)c3n2)CC1 [Compound 319, 1-(4-(4-((3-methyl-4-(pyrazolo[1,5-a]pyrimidin-6-yloxy)phenyl)amino)pyrido[3,2-d]pyrimidin-6-yl)piperazin-1-yl)prop-2-en-1-one] | < 50 nM
4 | C=CC(=O)N1CCN(c2ccc3ncnc(Nc4ccc(Oc5cc6ncnn6cn5)c(C)c4)c3n2)CC1(C)C [Compound 328, 1-(4-(4-((4-([1,2,4]triazolo[1,5-c]pyrimidin-7-yloxy)-3-methylphenyl)amino)pyrido[3,2-d]pyrimidin-6-yl)-2,2-dimethylpiperazin-1-yl)prop-2-en-1-one] | < 50 nM
5 | C=CC(=O)N1CCN(c2ccc3ncnc(Nc4ccc(Oc5cc6ncnn6cn5)c(C)c4)c3n2)C[C@H]1C [Compound 329, (R)-1-(4-(4-((4-([1,2,4]triazolo[1,5-c]pyrimidin-7-yloxy)-3-methylphenyl)amino)pyrido[3,2-d]pyrimidin-6-yl)-2-methylpiperazin-1-yl)prop-2-en-1-one] | 50 to 100 nM
6 | C=CC(=O)N1CCN(c2ccc3ncnc(Nc4ccc(Oc5ccc6c(c5)ncn6C(F)F)c(C)c4)c3n2)C[C@H]1C [Compound 340, (R)-1-(4-(4-((4-((1-(difluoromethyl)-1H-benzo[d]imidazol-5-yl)oxy)-3-methylphenyl)amino)pyrido[3,2-d]pyrimidin-6-yl)-2-methylpiperazin-1-yl)prop-2-en-1-one] | 50 to 100 nM
7 | Cc1cc(Nc2ncnc3ccc(N4CC5CCC(C4)N5C(=O)/C=C/C(F)F)nc23)ccc1Oc1ccc2c(c1)nnn2C [Compound 358, (E)-4,4-difluoro-1-(3-(4-((3-methyl-4-((1-methyl-1H-benzo[d][1,2,3]triazol-5-yl)oxy)phenyl)amino)pyrido[3,2-d]pyrimidin-6-yl)-3,8-diazabicyclo[3.2.1]octan-8-yl)but-2-en-1-one] | 50 to 100 nM
8 | Cc1cc(Nc2ncnc3ccc(N4CC5CC(C4)N5C(=O)/C=C/C(F)F)nc23)ccc1Oc1ccc2c(c1)nnn2C [Compound 359, (E)-4,4-difluoro-1-(3-(4-((3-methyl-4-((1-methyl-1H-benzo[d][1,2,3]triazol-5-yl)oxy)phenyl)amino)pyrido[3,2-d]pyrimidin-6-yl)-3,6-diazabicyclo[3.1.1]heptan-6-yl)but-2-en-1-one] | 100 to 500 nM
9 | COC[C@@H]1CN(c2ccc3ncnc(Nc4ccc(Oc5ccc6c(c5)nnn6C)c(C)c4)c3n2)CCN1C(=O)/C=C/CF [Compound 363, (S,E)-4-fluoro-1-(2-(methoxymethyl)-4-(4-((3-methyl-4-((1-methyl-1H-benzo[d][1,2,3]triazol-5-yl)oxy)phenyl)amino)pyrido[3,2-d]pyrimidin-6-yl)piperazin-1-yl)but-2-en-1-one] | 50 to 100 nM
10 | Cc1cc(Nc2ncnc3ccc(N4CC[C@@H](C)N(C(=O)/C=C/C(F)F)CC4)nc23)ccc1Oc1ccn2ncnc2c1 [Compound 367, (R,E)-1-(4-(4-((4-([1,2,4]triazolo[1,5-a]pyridin-7-yloxy)-3-methylphenyl)amino)pyrido[3,2-d]pyrimidin-6-yl)-7-methyl-1,4-diazepan-1-y1)-4,4-difluorobut-2-en-1-one] | 500 to 1000 nM
11 | C=CC(=O)N1CCN(c2ccc3ncnc(Nc4cc(C)c(Oc5ccn6ncnc6c5)cc4OC)c3n2)CC1 [Compound 371, 1-(4-(4-((4-([1,2,4]triazolo[1,5-a]pyridin-7-yloxy)-2-methoxy-5-methylphenyl)amino)pyrido[3,2-d]pyrimidin-6-yl)piperazin-1-yl)prop-2-en-1-one] | 50 to 100 nM
12 | C=CC(=O)N1CCN(c2ccc3ncnc(Nc4cc(C)c(Oc5cc(F)c6c(c5)ncn6C)cc4OC)c3n2)CC1 [Compound 372, 1-(4-(4-((4-((7-fluoro-1-methyl-1H-benzo[d]imidazol-5-yl)oxy)-2-methoxy-5-methylphenyl)amino)pyrido[3,2-d]pyrimidin-6-yl)piperazin-1-yl)prop-2-en-1-one] | 100 to 500 nM

Further lines, results first:

Row | IC50 | Structure (SMILES)
13 | 100 to 500 nM | C=CC(=O)N[C@@H]1CN(c2ccc3ncnc(Nc4ccc(Oc5ccc6c(c5)nnn6C)c(C)c4F)c3n2)CC[C@H]1C [Compound 309, N-((3S,4R)-1-(4-((2-fluoro-3-methyl-4-((1-methyl-1H-benzo[d][1,2,3]triazol-5-yl)oxy)phenyl)amino)pyrido[3,2-d]pyrimidin-6-yl)-4-methylpiperidin-3-y1)acrylamide]
14 | < 50 nM | C=CC(=O)N1CCN(c2ccc3ncnc(Nc4ccc(Oc5ccc6c(c5)nnn6C)c(C)c4)c3n2)CC1CF (stereo not shown) [Compound 313, 1-(2-(fluoromethyl)-4-(4-((3-methyl-4-((1-methyl-1H-benzo[d][1,2,3]triazol-5-yl)oxy)phenyl)amino)pyrido[3,2-d]pyrimidin-6-yl)piperazin-1-yl)prop-2-en-1-one]
15 | 500 to 1000 nM | C=CC(=O)N1CCN(c2ccc3ncnc(Nc4ccc(Oc5ccc6c(c5)nnn6C(F)F)c(C)c4F)c3n2)CC1(C)C [Compound 322, 1-(4-(4-((4-((1-(difluoromethyl)-1H-benzo[d][1,2,3]triazol-5-yl)oxy)-2-fluoro-3-methylphenyl)amino)pyrido[3,2-d]pyrimidin-6-yl)-2,2-dimethylpiperazin-1-yl)prop-2-en-1-one]
16 | ≥ 1000 nM | C=CC(=O)N[C@H]1CN(c2ccc3ncnc(Nc4ccc(Oc5ccc6c(c5)nnn6C)c(C)c4F)c3n2)CC[C@H]1C [Compound 341, N-((3R,4R)-1-(4-((2-fluoro-3-methyl-4-((1-methyl-1H-benzo[d][1,2,3]triazol-5-yl)oxy)phenyl)amino)pyrido[3,2-d]pyrimidin-6-yl)-4-methylpiperidin-3-yl)acrylamide]
17 | 100 to 500 nM | C=CC(=O)N[C@H]1CCN(c2ccc3ncnc(Nc4ccc(Oc5ccc6c(c5)nnn6C)c(C)c4F)c3n2)CC1(C)C [Compound 343, (S)-N-(1-(4-((2-fluoro-3-methyl-4-((1-methyl-1H-benzo[d][1,2,3]triazol-5-yl)oxy)phenyl)amino)pyrido[3,2-d]pyrimidin-6-yl)-3,3-dimethylpiperidin-4-yl)acrylamide]
18 | 100 to 500 nM | C=CC(=O)N[C@@H]1CCN(c2ccc3ncnc(Nc4ccc(Oc5ccc6c(c5)nnn6C)c(C)c4F)c3n2)CC1(C)C [Compound 344, (R)-N-(1-(4-((2-fluoro-3-methyl-4-((1-methyl-1H-benzo[d][1,2,3]triazol-5-yl)oxy)phenyl)amino)pyrido[3,2-d]pyrimidin-6-yl)-3,3-dimethylpiperidin-4-yl)acrylamide]
19 | 100 to 500 nM | C=CC(=O)N[C@H]1CN(c2ccc3ncnc(Nc4ccc(Oc5ccc6c(c5)nnn6C)c(C)c4F)c3n2)CC[C@@H]1C [Compound 350, N-((3R,4S)-1-(4-((2-fluoro-3-methyl-4-((1-methyl-1H-benzo[d][1,2,3]triazol-5-yl)oxy)phenyl)amino)pyrido[3,2-d]pyrimidin-6-yl)-4-methylpiperidin-3-yl)acrylamide]
20 | 100 to 500 nM | C=CC(=O)N1C[C@@H](N(C)c2ccc3ncnc(Nc4ccc(Oc5ccc6c(c5)nnn6C)c(C)c4F)c3n2)CC[C@H]1C [Compound 352, 1-((2R,5S)-5-((4-((2-fluoro-3-methyl-4-((1-methyl-1H-benzo[d][1,2,3]triazol-5-yl)oxy)phenyl)amino)pyrido[3,2-d]pyrimidin-6-yl)(methyl)amino)-2-methylpiperidin-1-yl)prop-2-en-1-one]
21 | 50 to 100 nM | COC[C@@H]1CN(c2ccc3ncnc(Nc4ccc(Oc5ccc6c(c5)nnn6C)c(C)c4F)c3n2)CCN1C(=O)/C=C/CF [Compound 361, (S,E)-4-fluoro-1-(4-(4-((2-fluoro-3-methyl-4-((1-methyl-1H-benzo[d][1,2,3]triazol-5-yl)oxy)phenyl)amino)pyrido[3,2-d]pyrimidin-6-yl)-2-(methoxymethyl)piperazin-1-yl)but-2-en-1-one]
22 | 100 to 500 nM | Cc1cc(Nc2ncnc3ccc(N4CCN(C(=O)/C=C/CF)[C@H](C)C4)nc23)ccc1Oc1ccc2c(c1)nnn2C [Compound 364, (R,E)-4-fluoro-1-(2-methyl-4-(4-((3-methyl-4-((1-methyl-1H-benzo[d][1,2,3]triazol-5-yl)oxy)phenyl)amino)pyrido[3,2-d]pyrimidin-6-yl)piperazin-1-yl)but-2-en-1-one]
23 | ≥ 1000 nM | C=C(F)C(=O)N1CC[C@H](N(C)c2ccc3ncnc(Nc4ccc(Oc5ccc6c(c5)nnn6C)c(C)c4F)c3n2)C1 [Compound 365, (S)-2-fluoro-1-(3-((4-((2-fluoro-3-methyl-4-((1-methyl-1H-benzo[d][1,2,3]triazol-5-yl)oxy)phenyl)amino)pyrido[3,2-d]pyrimidin-6-yl)(methyl)amino)pyrrolidin-1-yl)prop-2-en-1-one]
24 | 50 to 100 nM | Cc1cc(Nc2ncnc3ccc(N4CCN(C(=O)/C=C/C(F)F)[C@H](C)C4)nc23)ccc1Oc1ccc2c(c1)nnn2C [Compound 368, (R,E)-4,4-difluoro-1-(2-methyl-4-(4-((3-methyl-4-((1-methyl-1H-benzo[d][1,2,3]triazol-5-yl)oxy)phenyl)amino)pyrido[3,2-d]pyrimidin-6-yl)piperazin-1-yl)but-2-en-1-one]
25 | 100 to 500 nM | Cc1cc(Nc2ncnc3ccc(N4CCN(C(=O)/C=C/C(F)F)[C@@H](C)C4)nc23)ccc1Oc1ccc2c(c1)nnn2C [Compound 369, (S,E)-4,4-difluoro-1-(2-methyl-4-(4-((3-methyl-4-((1-methyl-1H-benzo[d][1,2,3]triazol-5-yl)oxy)phenyl)amino)pyrido[3,2-d]pyrimidin-6-yl)piperazin-1-yl)but-2-en-1-one]
